From patent US9587225B2, “Low-molecular-compound for improving production, maintenance and proliferation of pluripotent stem cells, composition comprising the same, and culture method” (KOREA RESEARCH INSTITUTE OF BIOSCIENCE AND BIOTECHNOLOGY, priority 2012, dated 2017)

Columns and labels:
total HDAC enzymes = experiment: Activity of total HDAC enzymes during reprogramming; type: cell-based, human; conditions: during reprogramming (FIG. 19 left)
Experimental: The values shown on the graph are mean values. The data are expressed as mean±SD (n=3) (*P<0.01, **P<0.005, by t-test).
Next, whether the above-described results were results of the inhibition of HDAC enzyme by RSC-133 during reprogramming of human skin fibroblasts was examined. […] According to the experimental method shown in FIG. 21, the expression levels of HDAC-family proteins were measured, and as a result, it could be seen that the expression level of HDAC1 in the test group treated with RSC-133 was inhibited at 10 days after treatment with RSC-133 compared to that of the control group (the light panel of FIG. 19 and FIG. 21). It was reported that HDAC1 can occupy the Oct4, Sox2, Klf4 and c-Myc gene loci in embryonic stem cells and that the expression of pluripotency-specific marker genes in HDAC1-deleted embryonic stem cells is increased. Thus, it is believed that RSC-133 can inhibit the function of HDAC1 and increase the H3K9ace level to stimulate the reprogramming process.

[1] = tested on: Mouse embryonic fibroblasts (OG2-MEF; hemizygous for the Oct4-GFP transgene); experiment: Reprogramming of mouse embryonic fibroblasts, Oct4-GFP colony count; type: cell-based
Experimental: FIG. 1 is a process of screening mouse cell reprogramming factors using analog library screening of novel trans-3-indoleacrylic acid-based compounds. In order to screen low-molecular-weight compounds that promote the production of reprogrammed stem cells, mouse embryonic stem cells (OG2-MEF; hemizygous for the Oct4-GFP transgene) were transduced with reprogramming viruses (Oct4, Sox2, Klf4, and c-Myc). After 5 days, the cells were seeded on gelatin-coated plates and then cultured in mouse embryonic stem cell culture media containing each of low-molecular-weight compounds until colonies having a morphology similar to that of mouse embryonic stem cells were formed. After 15 days, the number of colonies expressing endogenous Oct4 GFP fluorescence was measured, and compounds that increased the efficiency of reprogramming compared to that of a control group were selected. […] Oct4 (O), Sox2 (S), Klf4 (K), and cMyc (M). FIG. 1B is a graph showing the increase in efficiency of reprogramming by RSC-133 and ID-558 among screened compounds. The values shown on the graph are mean values. The data are expressed as mean±SD (n=3).
The OSKM reprogramming factor virus was produced according to the method of Example 3. […] At 15 days after the transfection, the number of either colonies showing AP activity or colonies expressing endogenous Oct4 GFP fluorescence was measured to determine the efficiency of reprogramming.
To discover low-molecular-weight compounds that are involved in the reprogramming process, analog library screening of novel trans-3-indoleacrylic acid-based compounds was performed in mouse cells. Mouse embryonic fibroblasts (OG2-MEF: hemizygous for the Oct4-GFP transgene) were transfected with reprogramming viruses of Oct4, Sox2, Klf4 and c-Myc (OSKM), and after 5 days, the cells were seeded on gelatin-coated 12-well plates and incubated with mouse embryonic stem cell culture medium containing each of low-molecular-weight compounds until colonies having a morphology similar to that mouse stem cells were formed so that endogenous Oct4 GFP fluorescence was expressed (FIG. 1A). […]

[2] = molecular target: T1, DNA methyl transferase 1 (DNMT1) (Homo sapiens, UniProt P26358); experiment: DNMT1 activity during reprogramming; type: cell-based; conditions: 10 days after induction of reprogramming, compared to untreated control (OSKM alone) (FIG. 20)
T1 construct: endogenous in cells; host or cells: human skin (foreskin) fibroblasts (hFF, ATCC CRL-2097) transduced with OSKM retrovirus
From the text: For comparison, the activity of DNMT1 in the absence of RSC-133 was set at 100%.
RSC133 regulates the activities of epigenetic regulators such as DNA methyltransferase (DNMT) and histone deacetylase (HDAC). At 10 days after induction of reprogramming by RSC133, the activity of DNMT1 was reduced by about 38% compared to that in an untreated control group (OSKM alone) (FIG. 20). Epigenetic chromatin remolding by DNA methylation and/or histone modification plays an important in a wide range of transcriptional regulation in the reprogramming process. […] The increased level of H3K9 histone acetylation (ace) is particularly associated with the restoration of pluripotency and reprogramming ability. It is known that DNA methylation by DNMT1 has a close connection with the change in chromatin status caused by HDAC activity.

T1 sequence (P26358 whole entry): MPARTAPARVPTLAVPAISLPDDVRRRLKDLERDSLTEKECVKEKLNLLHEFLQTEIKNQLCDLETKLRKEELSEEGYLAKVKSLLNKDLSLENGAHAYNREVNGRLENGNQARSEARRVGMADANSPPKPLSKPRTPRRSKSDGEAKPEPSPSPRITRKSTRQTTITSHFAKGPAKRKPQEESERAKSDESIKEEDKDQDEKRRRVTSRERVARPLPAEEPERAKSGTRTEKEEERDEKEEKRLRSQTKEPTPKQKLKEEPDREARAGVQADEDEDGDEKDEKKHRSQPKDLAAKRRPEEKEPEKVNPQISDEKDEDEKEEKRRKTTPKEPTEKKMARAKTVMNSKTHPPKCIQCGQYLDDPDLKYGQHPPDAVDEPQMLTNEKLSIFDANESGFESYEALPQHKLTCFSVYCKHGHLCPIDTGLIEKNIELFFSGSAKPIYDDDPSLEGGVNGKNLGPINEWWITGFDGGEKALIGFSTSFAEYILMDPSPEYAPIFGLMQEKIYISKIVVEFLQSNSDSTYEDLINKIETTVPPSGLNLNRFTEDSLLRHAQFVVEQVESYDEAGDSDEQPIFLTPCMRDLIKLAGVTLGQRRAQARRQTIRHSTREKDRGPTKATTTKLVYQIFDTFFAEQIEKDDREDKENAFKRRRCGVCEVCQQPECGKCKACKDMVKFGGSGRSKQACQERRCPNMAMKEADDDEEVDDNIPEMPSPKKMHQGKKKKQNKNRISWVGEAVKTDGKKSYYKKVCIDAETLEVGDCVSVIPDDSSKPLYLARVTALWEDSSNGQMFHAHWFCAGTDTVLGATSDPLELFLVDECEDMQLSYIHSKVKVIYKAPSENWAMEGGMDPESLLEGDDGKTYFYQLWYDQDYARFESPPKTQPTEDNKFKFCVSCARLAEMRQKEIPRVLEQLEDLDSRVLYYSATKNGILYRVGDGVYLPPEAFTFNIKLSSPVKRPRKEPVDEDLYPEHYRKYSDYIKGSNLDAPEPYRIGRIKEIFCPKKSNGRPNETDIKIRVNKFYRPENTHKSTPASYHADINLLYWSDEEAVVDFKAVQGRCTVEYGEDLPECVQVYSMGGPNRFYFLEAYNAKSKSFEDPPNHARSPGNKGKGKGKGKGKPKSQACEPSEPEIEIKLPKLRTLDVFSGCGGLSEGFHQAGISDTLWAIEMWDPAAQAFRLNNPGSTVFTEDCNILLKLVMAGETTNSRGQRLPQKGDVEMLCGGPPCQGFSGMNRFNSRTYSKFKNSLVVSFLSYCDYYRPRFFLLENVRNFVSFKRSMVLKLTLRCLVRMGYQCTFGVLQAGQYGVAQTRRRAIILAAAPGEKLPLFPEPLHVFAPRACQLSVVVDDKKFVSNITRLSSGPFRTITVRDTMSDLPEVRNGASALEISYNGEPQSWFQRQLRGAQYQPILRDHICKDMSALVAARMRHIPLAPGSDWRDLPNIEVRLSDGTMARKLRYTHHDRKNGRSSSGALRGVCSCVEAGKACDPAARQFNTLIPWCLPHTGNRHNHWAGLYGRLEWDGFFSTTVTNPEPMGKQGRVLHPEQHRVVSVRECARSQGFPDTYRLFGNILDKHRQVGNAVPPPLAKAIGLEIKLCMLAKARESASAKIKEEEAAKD

NC(=O)c1cccc(NC(=O)/C=C/c2c[nH]c3ccccc23)c1 [RSC-133, 3-[3-(1H-indol-3-yl)-acrylamido]-benzamide]
activity of total HDAC enzymes (total HDAC enzymes): slightly inhibited
efficiency of reprogramming (number of colonies expressing endogenous Oct4 GFP fluorescence) ([1]; OG2-MEF transfected with OSKM, after 15 days, compared to control group): showed the effect of increasing the efficiency of reprogramming
efficiency of reprogramming compared to reported compounds ([1]; vs 5-Azacytidine, BIX-01294, VPA or increased MOI of OSKM virus (FIG. 2a)): greatly increased the efficiency of reprogramming
reduction of the activity of DNMT1 [2]: about 38%
